Converted amounts (≈) assume the structure as drawn. The source made the active and inactive calls. The rule behind the calls is not given here.
system: Mycobacterium tuberculosis; test: Antimicrobial activity against Mycobacterium tuberculosis H37Rv by alamar blue assay; type: functional; conditions: not given

SMILES | MIC90
O=C(CNc1ccc(F)cc1)Nc1ccc2c(c1)COC2=O | > 100 µM
Cc1nnc(-c2ccc(OCc3cnnn3Cc3ccc(C#N)cc3)cc2)o1 | > 100 µM
Cc1cc(OCC(=O)Nc2ccc3c(c2)COC3=O)ccc1[N+](=O)[O-] | > 100 µM
Cc1ccc2nc(NC(=O)CCC(=O)O)sc2c1 | > 100 µM
O=C(COc1cc(Cl)ccc1Oc1ccc(Cl)cc1Cl)Nc1ccc2c(c1)COC2=O | > 100 µM
Cc1nc2sccc2c(=O)n1NC(=O)Nc1cccc([N+](=O)[O-])c1 | > 100 µM
Cc1nc2sccc2c(=O)n1NC(=O)Nc1ccc(F)cc1 | > 100 µM
O=C(COc1ccc(C(=O)/C=C/c2ccc([N+](=O)[O-])cc2)cc1)Nc1ccc2c(c1)COC2=O | > 100 µM
Fc1ccccc1Cn1nncc1COc1ccc2ccccc2c1 | > 100 µM
COc1ccc(NC(=O)Nn2c(C)nc3sccc3c2=O)cc1 | > 100 µM
O=C(O)CNC(=O)[C@@H]1C[C@H]1c1ccccc1 | > 100 µM
O=C(Cn1c(-c2ccncc2)nc2cc(Br)cnc21)Nc1cccc2ccccc12 | > 100 µM
CC(=O)c1ccc(OCC(=O)Nn2c(C)nc3sccc3c2=O)cc1 | > 100 µM
O=C(O)CCCC(=O)Nc1ccc(N2CC3(COC3)C2)c(F)c1 | > 100 µM
O=C(O)/C=C\C(=O)NCc1ccccc1 | > 100 µM
Cc1ccc(NC(=O)Nn2c(C)nc3sccc3c2=O)cc1Cl | > 100 µM
Fc1ccc(Cn2nncc2COc2ccc3ccccc3c2)cc1 | > 100 µM
COc1cccc(Cn2nncc2COc2ccc3ccccc3c2)c1 | 50 µM (≈ 17.3 µg/mL)
COc1cc(C(=O)/C=C/c2cc(OC)c(OC)c(OC)c2)ccc1OCC(=O)Nc1ccc2c(c1)COC2=O | > 100 µM
O=C(O)CCCC(=O)N1CCn2c(nnc2C(F)(F)F)C1 | > 100 µM
COc1ccc(NC(=O)Nc2ccc(-c3cnco3)cc2)cc1 | > 100 µM
Fc1ccccc1NC(=S)Nc1ccc(-c2ccccc2Cl)cn1 | > 100 µM
COc1ccc(-c2ccc(NC(=O)CCC(=O)O)cc2)cn1 | > 100 µM
CC(C)Cc1ccc(C(C)C(=O)Nc2ccc3c(c2)COC3=O)cc1 (centres undefined) | > 100 µM

SMILES | MIC90
O=C(O)CCCC(=O)Nc1cc(-c2ccco2)[nH]n1 | > 100 µM
COc1cc(-c2oc3ccccc3c(=O)c2OCC(=O)Nc2ccc3c(c2)COC3=O)cc(OC)c1OC | > 100 µM
COc1ccc(NC(=O)CC/C(C)=C/Cc2c(O)c3c(c(C)c2OC)COC3=O)cc1 | > 100 µM
Cc1nnc(-c2ccc(OCc3cnnn3Cc3ccc(Cl)cc3)cc2)o1 | > 100 µM
O=C(O)COCC(=O)Nc1ccccc1C(=O)O | > 100 µM
O=C(COc1ccc2ccccc2c1)Nc1ccc2c(c1)COC2=O | > 100 µM
Cc1nnc(-c2ccc(OCc3cnnn3Cc3ccccc3F)cc2)o1 | 100 µM (≈ 36.5 µg/mL)
COc1ccc2[nH]c(S(=O)(=O)Cc3c(C)c(OC)c(C)c[n+]3[O-])nc2c1 | > 100 µM
O=C(COc1cccc2ccccc12)Nc1ccc2c(c1)COC2=O | > 100 µM
Clc1ccc(Cn2nncc2COc2ccc3ccccc3c2)c(Cl)c1 | > 100 µM
COc1c(C)c2c(c(O)c1C/C=C(\C)CCC(=O)N[C@@H](C)c1ccccc1)C(=O)OC2 | > 100 µM
Cc1nnc(-c2ccc(OCc3cnnn3Cc3ccc(Cl)cc3Cl)cc2)o1 | > 100 µM
Cc1nc2sccc2c(=O)n1NC(=O)Nc1ccc([N+](=O)[O-])cc1 | > 100 µM
Cc1ccccc1NC(=S)Nc1ccc(-c2cc(Cl)cc(Cl)c2)cn1 | > 100 µM
O=C(O)CCC(=O)NCC1(N2CCOCC2)CCCCCC1 | > 100 µM
O=C1OCc2cc(NC(=O)c3cccnc3Cl)ccc21 | > 100 µM
O=C(COc1ccc(C(=O)/C=C/c2cccs2)cc1)Nc1ccc2c(c1)COC2=O | > 100 µM
CCOC(=O)C1CCN(CC(=O)Nc2ccc3c(c2)COC3=O)CC1 | > 100 µM
COc1cccc(NC(=O)Nn2c(C)nc3ccsc3c2=O)c1 | > 100 µM
O=C1OCc2cc(NS(=O)(=O)c3ccc([N+](=O)[O-])cc3)ccc21 | > 100 µM
COc1ccccc1NC(=O)Nn1c(C)nc2sccc2c1=O | > 100 µM
Cc1nc2sccc2c(=O)n1NC(=S)Nc1ccccc1F | > 100 µM
COc1cc(NC(=O)Nn2c(C)nc3sccc3c2=O)cc(OC)c1 | > 100 µM
COc1ccc(NC(=O)Nn2c(C)nc3ccsc3c2=O)cc1 | > 100 µM

SMILES | MIC90
Cc1nnc(-c2ccc(OCc3cnnn3Cc3cccc(Cl)c3)cc2)o1 | 50 µM (≈ 19.1 µg/mL)
O=C(O)/C=C\C(=O)NC12CC3CC(CC(C3)C1)C2 | > 100 µM
CC(C(=O)Nc1ccc2c(c1)COC2=O)c1ccc(-c2ccccc2)c(F)c1 (centres undefined) | > 100 µM
O=C(O)CCC(=O)NCc1ccc2c(c1)OCO2 | > 100 µM
Cc1ccc(CNC(=O)/C=C\C(=O)O)cc1 | > 100 µM
CC(=O)C1CCN(CC(=O)Nn2c(C)nc3sccc3c2=O)CC1 | > 100 µM
N#Cc1ccc(Cn2nncc2COc2cccc3ccccc23)cc1 | 100 µM (≈ 34 µg/mL)
COc1cccc(Cn2nncc2COc2ccc(-c3nnc(C)o3)cc2)c1 | 50 µM (≈ 18.9 µg/mL)
Cc1nnc(-c2ccc(OCc3cnnn3Cc3ccc(-c4ccccc4)cc3)cc2)o1 | 100 µM (≈ 42.3 µg/mL)
Cc1nc2sccc2c(=O)n1NC(=O)Nc1ccc2c(c1)OCO2 | > 100 µM
CC1CC(NS(=O)(=O)c2ccc(NC(=O)CCC(=O)O)cc2)=NO1 (centres undefined) | > 100 µM
Clc1cccc(Cn2nncc2COc2ccc3ccccc3c2)c1 | > 100 µM
Clc1ccc(Cn2nncc2COc2ccc3ccccc3c2)cc1 | > 100 µM
COC(=O)c1ccc(OCC(=O)Nc2ccc3c(c2)COC3=O)cc1 | > 100 µM
N#Cc1ccc(Cn2nncc2COc2ccc3ccccc3c2)cc1 | > 100 µM
CC(C(=O)Nc1ccc2c(c1)COC2=O)c1cccc(C(=O)c2ccccc2)c1 (centres undefined) | 100 µM (≈ 38.5 µg/mL)
COc1ccc2[nH]c(S(=O)(=O)Cc3ncc(C)c(OC)c3C)nc2c1 [OMEPRAZOLE SULFONE] | > 100 µM
Cc1nc2sccc2c(=O)n1NC(=O)/C=C/c1ccccc1 | > 100 µM
COc1cccc(NC(=O)Nn2c(C)nc3sccc3c2=O)c1 | > 100 µM
COc1cc(/C=C/C(=O)c2cccc(OCC(=O)Nc3ccc4c(c3)COC4=O)c2)cc(OC)c1OC | > 100 µM
Fc1ccccc1NC(=S)Nc1ccc(-c2cccc(Cl)c2)cn1 | > 100 µM
Cc1nnc(-c2ccc(OCc3cnnn3Cc3ccc(F)cc3)cc2)o1 | > 100 µM

system: Mycobacterium tuberculosis; test: Antimicrobial activity against Mycobacterium tuberculosis SRMV2.6 H37Rv by alamar blue assay; type: functional; conditions: not given

SMILES | MIC90
COc1cccc(Cn2nncc2COc2ccc3ccccc3c2)c1 | > 100 µM
Cc1nnc(-c2ccc(OCc3cnnn3Cc3ccccc3F)cc2)o1 | > 100 µM
Cc1nnc(-c2ccc(OCc3cnnn3Cc3cccc(Cl)c3)cc2)o1 | > 100 µM
N#Cc1ccc(Cn2nncc2COc2cccc3ccccc23)cc1 | > 100 µM
COc1cccc(Cn2nncc2COc2ccc(-c3nnc(C)o3)cc2)c1 | 100 µM (≈ 37.7 µg/mL)
Cc1nnc(-c2ccc(OCc3cnnn3Cc3ccc(-c4ccccc4)cc3)cc2)o1 | 100 µM (≈ 42.3 µg/mL)

system: Mycobacterium tuberculosis; test: Inhibition of Mycobacterium tuberculosis GuaB2 at 50 uM; conditions: not given

SMILES | inhibition
COc1cccc(Cn2nncc2COc2ccc3ccccc3c2)c1 | 52.4%
Cc1nnc(-c2ccc(OCc3cnnn3Cc3ccccc3F)cc2)o1 | 71%
Cc1nnc(-c2ccc(OCc3cnnn3Cc3cccc(Cl)c3)cc2)o1 | inactive
N#Cc1ccc(Cn2nncc2COc2cccc3ccccc23)cc1 | 43.5%
COc1cccc(Cn2nncc2COc2ccc(-c3nnc(C)o3)cc2)c1 | 35%
Cc1nnc(-c2ccc(OCc3cnnn3Cc3ccc(-c4ccccc4)cc3)cc2)o1 | 72.6%

system: not listed separately; test: Inhibition of Mycobacterium tuberculosis GuaB2; conditions: not given

SMILES | IC50
N#Cc1ccc(Cn2nncc2COc2cccc3ccccc23)cc1 | 175 µM

system: not listed separately; test: Octanol/water partition coefficient , logP of the compound; type: physicochemical; conditions: not given

SMILES | logP
Cc1nnc(-c2ccc(OCc3cnnn3Cc3ccccc3F)cc2)o1 | 2.5 to 3.5
Cc1nnc(-c2ccc(OCc3cnnn3Cc3ccc(-c4ccccc4)cc3)cc2)o1 | > 4.5

biological target: Inosine-5'-monophosphate dehydrogenase 2 (Homo sapiens) (UniProt P12268); test: Inhibition of human IMPDH2 at 10 uM; conditions: not given
Sequence (P12268 2-514 limits assumed): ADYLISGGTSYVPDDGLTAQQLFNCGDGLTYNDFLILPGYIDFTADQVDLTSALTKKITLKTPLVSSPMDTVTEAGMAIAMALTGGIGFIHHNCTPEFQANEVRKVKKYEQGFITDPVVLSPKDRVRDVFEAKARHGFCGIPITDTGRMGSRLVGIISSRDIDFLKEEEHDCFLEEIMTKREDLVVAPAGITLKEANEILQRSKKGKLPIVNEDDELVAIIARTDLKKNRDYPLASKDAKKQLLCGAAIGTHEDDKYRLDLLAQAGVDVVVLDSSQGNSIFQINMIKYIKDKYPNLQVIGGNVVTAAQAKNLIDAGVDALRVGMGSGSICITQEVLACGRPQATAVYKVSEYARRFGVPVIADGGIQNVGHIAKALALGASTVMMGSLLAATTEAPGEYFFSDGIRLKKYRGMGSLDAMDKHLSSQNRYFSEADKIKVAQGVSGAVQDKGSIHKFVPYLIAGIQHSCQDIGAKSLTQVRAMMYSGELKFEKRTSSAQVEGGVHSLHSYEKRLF

SMILES | inhibition
COc1cccc(Cn2nncc2COc2ccc3ccccc3c2)c1 | 24.9%
Cc1nnc(-c2ccc(OCc3cnnn3Cc3ccccc3F)cc2)o1 | 0.1%
Cc1nnc(-c2ccc(OCc3cnnn3Cc3cccc(Cl)c3)cc2)o1 | 0.1%
N#Cc1ccc(Cn2nncc2COc2cccc3ccccc23)cc1 | 14.8%
COc1cccc(Cn2nncc2COc2ccc(-c3nnc(C)o3)cc2)c1 | 0.1%
Cc1nnc(-c2ccc(OCc3cnnn3Cc3ccc(-c4ccccc4)cc3)cc2)o1 | 0.1%

system: Staphylococcus aureus; test: Growth inhibition of methicillin-resistant Staphylococcus aureus at 32 ug/ml; type: functional; conditions: read-out: GI

SMILES | inhibition of growth at 32 µg/mL
Cc1nnc(-c2ccc(OCc3cnnn3Cc3ccccc3F)cc2)o1 | 7.55%
Cc1nnc(-c2ccc(OCc3cnnn3Cc3cccc(Cl)c3)cc2)o1 | 10.3%
COc1cccc(Cn2nncc2COc2ccc(-c3nnc(C)o3)cc2)c1 | 5.5%
Cc1nnc(-c2ccc(OCc3cnnn3Cc3ccc(-c4ccccc4)cc3)cc2)o1 | 14%

system: Escherichia coli; test: Growth inhibition of Escherichia coli at 32 ug/ml; type: functional; conditions: read-out: GI

SMILES | inhibition of growth at 32 µg/mL
Cc1nnc(-c2ccc(OCc3cnnn3Cc3ccccc3F)cc2)o1 | -5.41%
Cc1nnc(-c2ccc(OCc3cnnn3Cc3cccc(Cl)c3)cc2)o1 | -5.62%
COc1cccc(Cn2nncc2COc2ccc(-c3nnc(C)o3)cc2)c1 | -7.43%
Cc1nnc(-c2ccc(OCc3cnnn3Cc3ccc(-c4ccccc4)cc3)cc2)o1 | -7.2%

system: Klebsiella pneumoniae; test: Growth inhibition of Klebsiella pneumoniae at 32 ug/ml; type: functional; conditions: read-out: GI

SMILES | inhibition of growth at 32 µg/mL
Cc1nnc(-c2ccc(OCc3cnnn3Cc3ccccc3F)cc2)o1 | -2.49%
Cc1nnc(-c2ccc(OCc3cnnn3Cc3cccc(Cl)c3)cc2)o1 | 2.15%
COc1cccc(Cn2nncc2COc2ccc(-c3nnc(C)o3)cc2)c1 | -4.35%
Cc1nnc(-c2ccc(OCc3cnnn3Cc3ccc(-c4ccccc4)cc3)cc2)o1 | 2.97%

system: Pseudomonas aeruginosa; test: Growth inhibition of Pseudomonas aeruginosa at 32 ug/ml; type: functional; conditions: read-out: GI

SMILES | inhibition of growth at 32 µg/mL
Cc1nnc(-c2ccc(OCc3cnnn3Cc3ccccc3F)cc2)o1 | 0.96%
Cc1nnc(-c2ccc(OCc3cnnn3Cc3cccc(Cl)c3)cc2)o1 | 5.84%
COc1cccc(Cn2nncc2COc2ccc(-c3nnc(C)o3)cc2)c1 | 1.44%
Cc1nnc(-c2ccc(OCc3cnnn3Cc3ccc(-c4ccccc4)cc3)cc2)o1 | 7.93%

system: Acinetobacter baumannii; test: Growth inhibition of Acinetobacter baumannii at 32 ug/ml; type: functional; conditions: read-out: GI

SMILES | inhibition of growth at 32 µg/mL
Cc1nnc(-c2ccc(OCc3cnnn3Cc3ccccc3F)cc2)o1 | -8.76%
Cc1nnc(-c2ccc(OCc3cnnn3Cc3cccc(Cl)c3)cc2)o1 | -12.1%
COc1cccc(Cn2nncc2COc2ccc(-c3nnc(C)o3)cc2)c1 | -15.3%
Cc1nnc(-c2ccc(OCc3cnnn3Cc3ccc(-c4ccccc4)cc3)cc2)o1 | -14.1%

system: Candida albicans; test: Growth inhibition of Candida albicans at 32 ug/ml; type: functional; conditions: read-out: GI

SMILES | inhibition of growth at 32 µg/mL
Cc1nnc(-c2ccc(OCc3cnnn3Cc3ccccc3F)cc2)o1 | 2.24%
Cc1nnc(-c2ccc(OCc3cnnn3Cc3cccc(Cl)c3)cc2)o1 | -0.27%
COc1cccc(Cn2nncc2COc2ccc(-c3nnc(C)o3)cc2)c1 | 3.07%
Cc1nnc(-c2ccc(OCc3cnnn3Cc3ccc(-c4ccccc4)cc3)cc2)o1 | -0.24%

system: Cryptococcus neoformans; test: Growth inhibition of Cryptococcus neoformans var. grubii at 32 ug/ml; type: functional; conditions: read-out: GI

SMILES | inhibition of growth at 32 µg/mL
Cc1nnc(-c2ccc(OCc3cnnn3Cc3ccccc3F)cc2)o1 | -88.2%
Cc1nnc(-c2ccc(OCc3cnnn3Cc3cccc(Cl)c3)cc2)o1 | -76.2%
COc1cccc(Cn2nncc2COc2ccc(-c3nnc(C)o3)cc2)c1 | -59.4%
Cc1nnc(-c2ccc(OCc3cnnn3Cc3ccc(-c4ccccc4)cc3)cc2)o1 | -70.2%
